In brackets after ≈: the same amount, converted by molar mass.
Legend:
Assay type in all cases: cell-based
[1] = tested on: Aspergillus fumigatus ATCC 204305; assay: Anti-fungal broth microdilution (MIC), fungus A; details: filamentous protocol, more than 50% growth inhibition, 48 to 72 h
Protocol: Anti-fungal activity of selected compounds of the invention was assessed by means of anti-fungal susceptibility tests as follows.
The antifungal activities of the compounds of the invention against different fungi were measured according to standard broth microdilution methods of the US National Committee for Clinical Laboratory standards (NCCLS) for yeasts (NCCLS document M27-A, 1997) and filamentous fungi (NCCLS document M38-A, 2002).
Stock solutions of compounds of the invention were freshly prepared on the days of experiments equal to 1.28 mg/10 ml media. Serial dilutions were performed to achieve the following testing concentrations: 64 μg/ml, 32 μg/ml, 16 μg/ml, 8 μg/ml, 4 μg/ml, 2 μg/ml, 1 μg/ml, 0.5 μg/ml, 0.25 μg/ml and 0.125 μg/ml.
An inoculum of 10^6 CFU/ml of the fungi strain was prepared in the appropriate medium and transferred to test tubes for incubation.
The method is used to determine the minimum inhibitory concentrations (MIC) of drugs on fungi strains. […] For the filamentous fungi protocol, MIC determination took place after 48 to 72 h of culture at 35° C. and was defined at that concentration which produced more than 50% visible growth inhibition.

[2] = tested on: Plasmodium falciparum (strain K1); assay: In vitro drug activity assay, protozoon C; details: strain K1, 3[H]-hypoxanthine method
Protocol: In vitro activity of selected compounds of the invention against different protozoa was assessed as follows.
Plasmodium falciparum strain K1 and strain 3D7 parasites were cultured according to Trager W and Jensen J B (Science 1976, 193: 673-675). In vitro drug susceptibility assays with the test compounds were carried out according to Korsinczky M et al. (Antimicrobial agents and chemotherapy 2000, 44(8): 2100-2108) and Fivelman Q L et al. (Antimicrobial agents and chemotherapy 2004, 48(11): 4097-4102) using a ^3[H]-hypoxanthine radioisotope method. ED50 values were calculated with Msxlfit (IDBS).
The following protozoa were assessed: • A) Trypanosoma cruzi (Tulahuan-LACZ amstigotes in PEM, Lorente S O et al., Antimicrobial agents and chemotherapy 2004, 48(8): 2937-2950; Buckner et al., Infection and Immunity 1999, 67(1): 403-409; Buckner et al., Antimicrobial Agents and Chemotherapy 1996, 40(11): 2592-2597) • B) Trypanosoma brucei rhodesiense (strain STIB900, Lorente S O et al., Antimicrobial agents and chemotherapy 2004, 48(8): 2937-2950; Habtemariam S, BMC Pharmacology 2003, 3:6) • C) Plasmodium falciparum (strain K1, Korsinczky M et al., Antimicrobial agents and chemotherapy 2000, 44(8): 2100-2108; Thaitong S and Beale G H, Trans. R. Soc. Trop. Med. Hyg. 1981, 75: 271-273; Trager W and Jensen J B, Science 1976, 193: 673-675) • D) Plasmodium faiciparum (strain 3D7, Mu et al., PLoS Biology 2005, 3(10): e335)

[3] = tested on: Bacteroides fragilis DSM 2151 (ATCC 25285); assay: Anti-bacterial bouillon microdilution assay (MIC), bacterium E; details: anaerob, 24 h
Outline: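 Broth microdilution MIC per DIN 58940-5/-7. Twofold compound dilutions in water spanned 256 to 0.125 μg/ml in the test concentration series, with inocula of about 1×10^6 organisms/ml in strain-appropriate media. Growth was read as turbidity at 595 nm before and after incubation, against growth and sterile controls.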

Structure (SMILES)	MIC, fungus A [1] [µg/mL]	ED50 (μg/mL), protozoon C [2] [µg/mL]	MIC [3] [µg/mL]
CCCCCCCCCCCCCCCCOP(=O)([O-])OCC[N+]1(C)CCCCC1 [Compound 2, Phosphoric acid hexadecyl ester 2-(1-methyl-piperidin-1-yl)-ethyl ester]	2 (≈ 4.47 µM)	19.36 (≈ 43.2 µM)	–
CCCCCCCCCCCCCCCCOP(=O)([O-])OCC[N+](C)(C)C [miltefosine, hexadecylphosphocholine, reference compound]	–	–	> 256
